For one molecule, inhibition results are on record in publication PMC6934184, “Selective DNA-PKcs inhibition extends the therapeutic index of localized radiotherapy and chemotherapy” (The Journal of Clinical Investigation, 2019).

Each structure is given as a SMILES string.

The experiment has as its target T1, ALK R1275Q (Homo sapiens, UniProt Q9UM73, R1275Q).
T1 construct: purchased Thermo Fisher Scientific (Life Technologies) SelectScreen
Put plainly: SelectScreen LanthaScreen. It is filed as binding. The settings on record: read-out: % displacement. A digest of the protocol:
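Percent values come from Thermo SelectScreen profiling of NU5455, combining activity and binding assays. CSF1R was run in Z'LYTE format at Km app ATP, and CAMK1 in Adapta format with ATP listed at 10.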

T1 sequence (Q9UM73 19-1620 R1275Q): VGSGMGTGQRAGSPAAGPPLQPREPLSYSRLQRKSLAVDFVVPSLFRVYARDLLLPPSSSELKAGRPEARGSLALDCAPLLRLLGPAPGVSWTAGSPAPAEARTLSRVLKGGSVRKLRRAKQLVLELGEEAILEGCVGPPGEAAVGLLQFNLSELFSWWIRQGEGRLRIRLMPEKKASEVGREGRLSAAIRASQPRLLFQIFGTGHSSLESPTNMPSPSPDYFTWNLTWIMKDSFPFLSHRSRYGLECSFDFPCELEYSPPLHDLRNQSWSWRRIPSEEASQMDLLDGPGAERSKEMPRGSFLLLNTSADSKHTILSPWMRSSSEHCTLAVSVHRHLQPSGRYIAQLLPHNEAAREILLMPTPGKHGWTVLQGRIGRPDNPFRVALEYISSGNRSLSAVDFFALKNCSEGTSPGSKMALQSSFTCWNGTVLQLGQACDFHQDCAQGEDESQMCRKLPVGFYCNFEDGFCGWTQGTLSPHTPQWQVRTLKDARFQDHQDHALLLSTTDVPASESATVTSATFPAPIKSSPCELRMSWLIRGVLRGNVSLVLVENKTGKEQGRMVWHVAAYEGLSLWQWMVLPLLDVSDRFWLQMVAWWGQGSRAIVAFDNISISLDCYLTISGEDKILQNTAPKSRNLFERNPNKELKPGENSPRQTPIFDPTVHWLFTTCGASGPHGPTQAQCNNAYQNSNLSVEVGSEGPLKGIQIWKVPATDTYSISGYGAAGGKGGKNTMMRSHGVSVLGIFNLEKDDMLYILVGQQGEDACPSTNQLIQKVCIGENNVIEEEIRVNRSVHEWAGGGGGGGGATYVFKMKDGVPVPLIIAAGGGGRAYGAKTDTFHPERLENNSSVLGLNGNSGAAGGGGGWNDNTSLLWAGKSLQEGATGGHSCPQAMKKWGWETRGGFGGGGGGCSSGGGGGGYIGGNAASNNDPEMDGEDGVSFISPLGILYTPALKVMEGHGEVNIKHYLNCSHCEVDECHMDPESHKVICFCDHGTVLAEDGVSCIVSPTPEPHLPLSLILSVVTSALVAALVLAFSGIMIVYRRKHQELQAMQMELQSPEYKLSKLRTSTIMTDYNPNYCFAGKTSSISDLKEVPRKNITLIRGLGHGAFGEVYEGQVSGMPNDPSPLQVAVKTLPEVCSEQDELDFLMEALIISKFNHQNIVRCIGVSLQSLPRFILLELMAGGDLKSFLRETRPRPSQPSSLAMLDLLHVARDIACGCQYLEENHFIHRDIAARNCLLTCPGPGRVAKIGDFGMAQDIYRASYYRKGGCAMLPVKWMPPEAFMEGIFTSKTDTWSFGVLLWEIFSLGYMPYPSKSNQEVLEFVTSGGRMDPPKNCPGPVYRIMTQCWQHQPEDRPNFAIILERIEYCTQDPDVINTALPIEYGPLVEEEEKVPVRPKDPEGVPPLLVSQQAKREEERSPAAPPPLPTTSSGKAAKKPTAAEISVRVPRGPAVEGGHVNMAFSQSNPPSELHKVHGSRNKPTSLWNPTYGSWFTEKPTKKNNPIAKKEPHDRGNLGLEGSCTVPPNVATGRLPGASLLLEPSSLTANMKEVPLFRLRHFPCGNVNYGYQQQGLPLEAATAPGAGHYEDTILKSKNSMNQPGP

For `CN(C(=O)CN1CCOCC1)c1ccc2sc3c(-c4cccc5c(=O)cc(N6CC7CCC(C6)O7)oc45)cccc3c2c1` [NU5455], the inhibition at 1 µM is 2%.
